Converted amounts (≈) assume the structure as drawn.
Tests used:
Botrytis cinerea [1] = experiment: Antifungal activity against Botryotinia fuckeliana; format: functional, organism-based
Pyricularia oryzae = experiment: Antifungal activity against Magnaporthe oryzae; format: functional, organism-based
[2] = tested on: Trichophyton mentagrophytes; experiment: Antifungal activity against Trichophyton mentagrophytes; format: functional
[3] = tested on: Trichophyton mentagrophytes; experiment: Antifungal activity against Trichophyton mentagrophytes assessed as accumulation of squalene using [2-14C]acetate at 1 x 10^-8 M; format: functional
[4] = tested on: Trichophyton mentagrophytes; experiment: Antifungal activity against Trichophyton mentagrophytes assessed as accumulation of squalene using [2-14C]acetate at 1 x 10^-9 M; format: functional
[5] = biological target: T1, Squalene epoxidase ERG1 (Saccharomyces cerevisiae S288c) (UniProt P32476); experiment: Inhibition of squalene epoxidase in Saccharomyces cerevisiae IFO 1346 assessed as incorporation of [2-14C]mevalonate into 4alpha-methyl sterols at 1 x 10^-5 M after 3 hr; design: scale not given: the % may be the effect or the level left
T1 sequence (whole entry): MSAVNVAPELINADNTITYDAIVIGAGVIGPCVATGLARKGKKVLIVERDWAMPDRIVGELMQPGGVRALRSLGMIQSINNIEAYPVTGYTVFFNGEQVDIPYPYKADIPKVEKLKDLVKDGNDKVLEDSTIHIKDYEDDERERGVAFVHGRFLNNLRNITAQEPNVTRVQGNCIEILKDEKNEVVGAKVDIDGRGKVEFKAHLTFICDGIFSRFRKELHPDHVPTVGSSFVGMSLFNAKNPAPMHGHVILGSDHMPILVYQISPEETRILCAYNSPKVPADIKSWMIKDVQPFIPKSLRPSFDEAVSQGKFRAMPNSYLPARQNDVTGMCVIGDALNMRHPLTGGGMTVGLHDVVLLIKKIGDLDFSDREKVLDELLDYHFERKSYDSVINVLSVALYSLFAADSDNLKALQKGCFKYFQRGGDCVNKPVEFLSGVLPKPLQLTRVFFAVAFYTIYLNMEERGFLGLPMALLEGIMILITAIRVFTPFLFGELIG

Botrytis cinerea [6] = experiment: Antifungal activity against Botryotinia fuckeliana assessed as accumulation of squalene using [2-14C]acetate at 1 x 10^-5 M; format: functional
Botrytis cinerea [7] = experiment: Antifungal activity against Botryotinia fuckeliana assessed as accumulation of squalene using [2-14C]acetate at 1 x 10^-6 M; format: functional
[8] = biological target: T1, Squalene epoxidase ERG1 (Saccharomyces cerevisiae S288c); experiment: Inhibition of squalene epoxidase in Saccharomyces cerevisiae IFO 1346 assessed as incorporation of [2-14C]mevalonate into 4,4-dimethyl sterols at 1 x 10^-5 M after 3 hr; design: scale not given: the % may be the effect or the level left
[9] = tested on: Trichophyton mentagrophytes; experiment: Antifungal activity against Trichophyton mentagrophytes assessed as accumulation of squalene using [2-14C]acetate at 1 x 10^-7 M; format: functional
[10] = biological target: T1, Squalene epoxidase ERG1 (Saccharomyces cerevisiae S288c); experiment: Inhibition of squalene epoxidase in Saccharomyces cerevisiae IFO 1346 assessed as incorporation of [2-14C]mevalonate into 4-desmethyl sterols at 1 x 10^-5 M after 3 hr; design: scale not given: the % may be the effect or the level left
[11] = biological target: T1, Squalene epoxidase ERG1 (Saccharomyces cerevisiae S288c); experiment: Inhibition of squalene epoxidase in Saccharomyces cerevisiae IFO 1346 assessed as incorporation of [2-14C]mevalonate into 2,3-oxidosqualene at 1 x 10^-5 M after 3 hr; design: scale not given: the % may be the effect or the level left
Botrytis cinerea [12] = experiment: Antifungal activity against Botryotinia fuckeliana assessed as accumulation of squalene using [2-14C]acetate at 1 x 10^-7 M; format: functional
[13] = biological target: T1, Squalene epoxidase ERG1 (Saccharomyces cerevisiae S288c); experiment: Inhibition of squalene epoxidase in Saccharomyces cerevisiae IFO 1346 assessed as incorporation of [2-14C]mevalonate into squalene at 1 x 10^-5 M after 3 hr; design: scale not given: the % may be the effect or the level left
Botrytis cinerea [14] = experiment: Antifungal activity against Botryotinia fuckeliana assessed as accumulation of squalene using [2-14C]acetate at 3 x 10^-5 M; format: functional
[15] = biological target: T1, Squalene epoxidase ERG1 (Saccharomyces cerevisiae S288c); experiment: Inhibition of squalene epoxidase in Saccharomyces cerevisiae IFO 1346 assessed as incorporation of [2-14C]mevalonate into squalene at 1 x 10^-4 M after 3 hr; design: scale not given: the % may be the effect or the level left
[16] = biological target: T1, Squalene epoxidase ERG1 (Saccharomyces cerevisiae S288c); experiment: Inhibition of squalene epoxidase in Saccharomyces cerevisiae IFO 1346 assessed as incorporation of [2-14C]mevalonate into 4alpha-methyl sterols at 1 x 10^-4 M after 3 hr; design: scale not given: the % may be the effect or the level left
[17] = biological target: T1, Squalene epoxidase ERG1 (Saccharomyces cerevisiae S288c); experiment: Inhibition of squalene epoxidase in Saccharomyces cerevisiae IFO 1346 assessed as incorporation of [2-14C]mevalonate into 2,3-oxidosqualene at 1 x 10^-4 M after 3 hr; design: scale not given: the % may be the effect or the level left
[18] = biological target: T1, Squalene epoxidase ERG1 (Saccharomyces cerevisiae S288c); experiment: Inhibition of squalene epoxidase in Saccharomyces cerevisiae IFO 1346 assessed as incorporation of [2-14C]mevalonate into 4,4-dimethyl sterols at 1 x 10^-4 M after 3 hr; design: scale not given: the % may be the effect or the level left
[19] = biological target: T1, Squalene epoxidase ERG1 (Saccharomyces cerevisiae S288c); experiment: Inhibition of squalene epoxidase in Saccharomyces cerevisiae IFO 1346 assessed as incorporation of [2-14C]mevalonate into 4-desmethyl sterols at 1 x 10^-4 M after 3 hr; design: scale not given: the % may be the effect or the level left

Row | SMILES | EC50 (Botrytis cinerea [1]) [µg/mL] | EC50 (Pyricularia oryzae) [µg/mL] | MIC [2] [µg/mL] | further results
1 | Clc1cccc(Cl)c1-c1csc(Nc2ccc(Br)cc2)n1 | 0.05 (≈ 0.125 µM) | 0.5 (≈ 1.25 µM) | 0.03 (≈ 0.075 µM) | 
2 | Cc1cccc(N(C)C(=S)Oc2ccc3ccccc3c2)c1 [TOLNAFTATE] |  |  |  | Activity [3]: 72.1%; Activity [4]: 74.2%; Activity [5]: 1.2%; Activity (Botrytis cinerea [6]): 79%; Activity (Botrytis cinerea [7]): 66%; Activity [8]: 1.9%; Activity [9]: 81.5%; Activity [10]: 43.6%; Activity [11]: 3.5%; Activity (Botrytis cinerea [12]): 10%; Activity [13]: 49%
3 | CS(=O)(=O)c1ccc(Nc2nc(-c3c(Cl)cccc3Cl)cs2)cc1 | > 100 | 3 (≈ 7.51 µM) | 3 (≈ 7.51 µM) | 
4 | CSc1ccc(Nc2nc(-c3c(Cl)cccc3Cl)cs2)cc1 | 0.3 (≈ 0.817 µM) | 4 (≈ 10.9 µM) | 0.1 (≈ 0.272 µM) | 
5 | Clc1cccc(Nc2nc(-c3c(Cl)cccc3Cl)cs2)c1 | > 100 | 10 (≈ 28.1 µM) | 0.1 (≈ 0.281 µM) | Activity (Botrytis cinerea [6]): 4%
6 | Clc1ccc(Nc2nc(-c3cccc(Cl)c3Cl)cs2)cc1 | > 100 | > 100 | 3 (≈ 8.43 µM) | 
7 | Clc1ccc(Nc2nc(-c3ccccc3Cl)cs2)cc1 | > 100 | 0.3 (≈ 0.934 µM) | 0.3 (≈ 0.934 µM) | Activity (Botrytis cinerea [6]): 28.8%; Activity (Botrytis cinerea [14]): 46.3%
8 | Clc1ccc(Nc2nc(-c3ccc(Cl)cc3)cs2)cc1 | > 100 | 0.3 (≈ 0.934 µM) | > 100 | Activity (Botrytis cinerea [14]): 8.4%
9 | Clc1cccc(Cl)c1-c1csc(Nc2ccc(I)cc2)n1 | 0.2 (≈ 0.447 µM) | 0.3 (≈ 0.671 µM) | 0.03 (≈ 0.0671 µM) | 
10 | CC(C)Oc1ccc(Nc2nc(-c3c(Cl)cccc3Cl)cs2)cc1 | > 100 | 3 (≈ 7.91 µM) | 30 (≈ 79.1 µM) | 
11 | CC(C)c1ccc(Nc2nc(-c3c(Cl)cccc3Cl)cs2)cc1 | > 100 | 2 (≈ 5.5 µM) | 0.3 (≈ 0.826 µM) | 
12 | COc1ccc(Nc2nc(-c3c(Cl)cccc3Cl)cs2)cc1 | > 100 | 10 (≈ 28.5 µM) | 0.1 (≈ 0.285 µM) | 
13 | Cc1cccc(C)c1-c1csc(Nc2ccc(Cl)cc2)n1 | 0.05 (≈ 0.159 µM) | 10 (≈ 31.8 µM) | 0.1 (≈ 0.318 µM) | 
14 | Fc1cc(Cl)ccc1Nc1nc(-c2c(Cl)cccc2Cl)cs1 | 0.1 (≈ 0.268 µM) | 0.5 (≈ 1.34 µM) | 0.1 (≈ 0.268 µM) | 
15 | Clc1ccc(Nc2nc(-c3cccc(Cl)c3)cs2)cc1 | > 100 | 0.3 (≈ 0.934 µM) | 3 (≈ 9.34 µM) | Activity (Botrytis cinerea [14]): 1.7%
16 | CC(C)(C)c1ccc(Nc2nc(-c3c(Cl)cccc3Cl)cs2)cc1 | > 100 | 1 (≈ 2.65 µM) | > 100 | 
17 | Clc1ccc(Nc2nc(-c3c(Cl)cccc3Cl)cs2)cc1 | 0.05 (≈ 0.141 µM) | 0.4 (≈ 1.12 µM) | 0.03 (≈ 0.0843 µM) | Activity [15]: 80.3%; Activity [3]: 67.4%; Activity [4]: 28.5%; Activity [5]: 1.7%; Activity (Botrytis cinerea [6]): 86.7%; Activity (Botrytis cinerea [7]): 72.5%; Activity [8]: 1.5%; Activity [16]: 0.7%; Activity [17]: 1.9%; Activity [9]: 85.8%; Activity [10]: 47.2%; Activity [18]: 0.9%; Activity [11]: 3.6%; Activity [19]: 15.3%; Activity (Botrytis cinerea [12]): 7.5%; Activity [13]: 44.9%
18 | CCCc1ccc(Nc2nc(-c3c(Cl)cccc3Cl)cs2)cc1 | > 100 | 30 (≈ 82.6 µM) | 0.1 (≈ 0.275 µM) | 
19 | O=[N+]([O-])c1ccc(Nc2nc(-c3c(Cl)cccc3Cl)cs2)cc1 | > 100 | > 100 | 30 (≈ 81.9 µM) | 
20 | Clc1ccc(Cc2nc(-c3c(Cl)cccc3Cl)cs2)cc1 | > 100 | > 100 | > 100 | Activity (Botrytis cinerea [6]): 3.8%

Source: ChEMBL document CHEMBL3046425, “Synthesis of Antifungal 2-Anilino-4-phenylthiazoles and Their Inhibitory Activities on Sterol Biosynthesis” (J Pestic Sci, 2001)
